Experimental data reported in patent US20260034103A1, “COMPOSITIONS AND METHODS FOR IMPROVING MEMORY AND COGNITION” (priority 2022, published 2026).

Tests used:
[1] = test system: Sprague Dawley rat hippocampal slices; assay: Ex vivo electrophysiology in rat hippocampal slices: mEPSP frequency; format: cell-based
From the text: (§1) The effect of compound 1 to enhance mEPSPs may be dependent on the influx of extracellular calcium.

[2] = test system: Sprague Dawley rat hippocampal slices; assay: Ex vivo electrophysiology: paired-pulse ratio (short-term plasticity), CA1 with Schaffer collateral stimulation; format: cell-based; settings: 10 nM and 100 nM; interstimulus intervals 50-400 ms; vs vehicle 0.01% DMSO
Method: Response is Stratum radiatum of area CA1 of the hippocampus with Schaffer collateral stimulation. Statistical differences correspond to the ones observed between Compound 1 10 nM and Vehicle groups.
Statistical differences correspond to the ones observed between Compound 1 100 nM and Vehicle groups.
as §1

Long-Evans rats = assay: Novel object recognition test, scopolamine-induced cognitive impairment; format: in vivo, rat; settings: 0.1 and 1 mg/kg PO
Method: Total exploration time of two identical objects in the acquisition trial was measured manually and indicated as the mean±SEM (n=8). No statistical difference was found in the total exploration time among the different groups by one-way ANOVA (P=0.115).
NDI was calculated using the following equation: novel object interaction time/total interaction time×100(%). Data are represented as the mean±SEM (n=8). Significant difference from control group was indicated by ***P<0.001 (Student's t-test). Significant differences from scopolamine-treated vehicle group were indicated by ##P<0.01 (Dunnett test). Significant difference from scopolamine-treated vehicle group were indicated by †††P<0.001 (Student's t-test).
Exploration time of each object in retention trial was measured manually and presented as the mean±SEM (n=8). Significant differences from familiar object interaction were indicated by **P<0.01, *P<0.05 (paired t-test).
A novel object recognition test (which evaluates visual learning and memory) was conducted to investigate the effect of compound 1 on scopolamine-induced cognitive impairment in Long-Evans rats. Donepezil was used as a positive control. Scopolamine at 0.1 mg/kg SC reduced the novelty discrimination index (NDI) a measure of cognitive function (FIGS. 4-6).

rats = assay: Freely behaving rodent model of long-term potentiation (LTP); format: in vivo, rat; settings: 0.01 and 0.1 mg/kg IV
Method: Amplitudes of fEPSP are normalized to baseline and plotted against time.
A freely behaving rodent model of long-term potentiation (LTP), a frequently studied form of synaptic plasticity, was employed. LTP is a persistent increase in the strength of synaptic connections between neurons, and is a cellular mechanism widely considered to underlie the processes of learning and memory. At 0.01 and 0.1 mg/kg IV compound 1 increased LTP compared to vehicle controls (FIGS. 10-11).

[3] = test system: adult subjects with major depressive disorder (MDD); assay: Phase 2 clinical trial in MDD: HAM-D Item #17 Retardation; format: in vivo, human; settings: 20 mg/day; for HAM-D Item #17 Retardation Change From Baseline, Max / HAM-D Item #17 Retardation Change From Baseline, Mean (SD) / HAM-D Item #17 Retardation Change From Baseline, Median / HAM-D Item #17 Retardation Change From Baseline, Min / HAM-D Item #17 Retardation score, Max / HAM-D Item #17 Retardation score, Mean (SD) / HAM-D Item #17 Retardation score, Median / HAM-D Item #17 Retardation score, Min: mITT, Females
Method: A Phase 2, multicenter, double-blind, randomized, placebo-controlled study of the safety and efficacy of SP-624 in the treatment of adult subjects with major depressive disorder (MDD) as defined by the Diagnostic and Statistical Manual of Mental Disorders, Fifth Edition (DSM-5) was carried out. Following the successful completion of a Screening Phase, subjects were randomized to one of two treatment groups in a 1:1 ratio and received Compound 1 (SP-624) or placebo over a treatment period of four weeks (Treatment Group #1: SP-624 20 mg/day; Treatment Group #2: Placebo).
Prior to initiating the 4-week treatment period, subjects completed a Screening/Baseline period of up to 28 days, during which time all screening assessments were performed, and any current depression medications discontinued. All screening assessments were completed before discontinuing any current depression medications. Subjects returned for a Baseline Visit to complete efficacy and safety assessments. During the treatment period, subjects returned to the investigative site to complete efficacy and safety assessments at the end of Weeks 1, 2, 3, and 4. After the final dose of study drug, subjects completed a follow-up period of two weeks and returned at the end of Weeks 5 and 6. Subjects may be treated with anti-depressant medications according to physician recommendations after completion of the Week 5 Visit.
Each dose of Compound 1 was supplied as two capsules, each containing 10 mg of active pharmaceutical ingredient (API). Matching placebo capsules identical in shape and color to the active capsules were used.
The second cognitive function measurement is HAM-D Item #17 Retardation (slowness of thought and speech, impaired ability to concentrate, decreased motor activity). The answer scale is: 0—Normal speech and thought; 1—Slight retardation at interview (mild psychomotor retardation); 2—Obvious retardation at interview (moderate, some difficulty with interview, noticeable pauses and slowness of thought); 3—Interview difficult (severe psychomotor retardation, very long pauses); 4—Complete stupor (extreme retardation, interview barely possible).

In the case of `COC1=CC(=O)C[C@@H](C)[C@]12Oc1c(Cl)c(-c3nnc(C)o3)cc(OC)c1C2=O` [Compound 1, (2S,6′R)-7-Chloro-2′,4-dimethoxy-6′-methyl-6-(5-methyl-1,3,4-oxadiazol-2-yl)-3H-spiro[1-benzofuran-2,1′-cyclohex[2]ene]-3,4′-dione], the “frequency of miniature excitatory post-synaptic potentials (mEPSPs) in the hippocampus” value [1] is reported as “increase the frequency”, the “short-term plasticity (paired-pulse ratio)” value [2] is reported as “enhanced short-term plasticity” and the “novelty discrimination index (NDI) reduced by scopolamine” value (Long-Evans rats) is reported as “significantly improved”. For the same compound, the “LTP compared to vehicle controls” value (rats) was “increased LTP”, the “HAM-D Item #17 Retardation Change From Baseline, Max” value ([3]; Week 2) was 2 and the “HAM-D Item #17 Retardation Change From Baseline, Mean (SD)” value ([3]; Week 2) was −0.2 (0.79). The “HAM-D Item #17 Retardation Change From Baseline, Median” value ([3]; Week 2) was 0, the “HAM-D Item #17 Retardation Change From Baseline, Min” value ([3]; Week 2) was −2 and the “HAM-D Item #17 Retardation score, Max” value ([3]; Week 2) was 2. For the same compound, the “HAM-D Item #17 Retardation score, Mean (SD)” value ([3]; Week 2) was 0.6 (0.71), the “HAM-D Item #17 Retardation score, Median” value ([3]; Week 2) was 0 and the “HAM-D Item #17 Retardation score, Min” value ([3]; Week 2) was 0. For the same compound, the “HAM-D Item #17 Retardation Change From Baseline, Max” value ([3]; Week 4) was 1, the “HAM-D Item #17 Retardation Change From Baseline, Mean (SD)” value ([3]; Week 4) was −0.4 (0.82) and the “HAM-D Item #17 Retardation Change From Baseline, Median” value ([3]; Week 4) was 0. The “HAM-D Item #17 Retardation Change From Baseline, Min” value ([3]; Week 4) was −2, the “HAM-D Item #17 Retardation score, Max” value ([3]; Week 4) was 2 and the “HAM-D Item #17 Retardation score, Mean (SD)” value ([3]; Week 4) was 0.4 (0.55). The “HAM-D Item #17 Retardation score, Median” value ([3]; Week 4) was 0, the “HAM-D Item #17 Retardation score, Min” value ([3]; Week 4) was 0 and the “HAM-D Item #17 Retardation, improvement in score vs placebo” value ([3]; by week 4 of treatment) was “greater improvement in score”.
